Assay results: ChEMBL document CHEMBL4417631, “Oral peptide inhibitors of interleukin-23 receptor and their use to treat inflammatory bowel diseases” (2017)
Where a SMILES comes first, the peptide text is derived from it. [ ]: non-standard residue; d: D form. hLeu = CC(C)CC[C@H](N)C(=O)O

biological target: T1, Interleukin-23 receptor (Homo sapiens, UniProt Q5VWK5); experiment: Inhibition of interleukin-23 binding to human interleukin-23 receptor incubated for 2 hrs by competitive binding ELISA
T1 sequence (Q5VWK5 whole entry): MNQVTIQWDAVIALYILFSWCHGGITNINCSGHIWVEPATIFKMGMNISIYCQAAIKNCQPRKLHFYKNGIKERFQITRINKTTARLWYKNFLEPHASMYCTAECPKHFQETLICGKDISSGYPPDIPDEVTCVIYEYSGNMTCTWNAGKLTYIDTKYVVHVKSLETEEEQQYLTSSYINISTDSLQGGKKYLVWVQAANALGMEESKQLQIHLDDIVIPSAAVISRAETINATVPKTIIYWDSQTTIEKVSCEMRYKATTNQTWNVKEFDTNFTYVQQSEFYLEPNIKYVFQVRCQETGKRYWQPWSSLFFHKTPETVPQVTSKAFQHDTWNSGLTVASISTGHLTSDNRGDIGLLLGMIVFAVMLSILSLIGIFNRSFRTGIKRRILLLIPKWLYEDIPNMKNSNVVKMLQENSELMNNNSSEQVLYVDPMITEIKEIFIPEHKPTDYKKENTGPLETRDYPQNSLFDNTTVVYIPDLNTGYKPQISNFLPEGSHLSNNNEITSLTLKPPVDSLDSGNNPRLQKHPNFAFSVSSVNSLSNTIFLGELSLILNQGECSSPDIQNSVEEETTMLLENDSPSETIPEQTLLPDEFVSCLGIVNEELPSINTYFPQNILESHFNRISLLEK

IC50	SMILES
> 1000 nM	CC(=O)N[C@@H](CS)C(=O)N[C@@H](CCCNC(=N)N)C(=O)N[C@@H](CC(=O)O)C(=O)N[C@@H](Cc1c[nH]c2ccccc12)C(=O)N[C@@H](CCC(N)=O)C(=O)N[C@@H](CS)C(=O)N[C@@H](Cc1ccc(O)cc1)C(=O)N[C@@H](Cc1c[nH]c2ccccc12)C(=O)N[C@H](CCCNC(=N)N)C(=O)N[C@@H](CCCCN)C(=O)N[C@@H](Cc1ccccc1)C(=O)NCC(=O)NCCOCCC(=O)N[C@H](CCCCN)C(N)=O
100 to 1000 nM	CC(=O)NCCCC[C@H](NC(=O)[C@](C)(CCCCN)NC(=O)[C@H](Cc1ccc2ccccc2c1)NC(=O)[C@H](Cc1cc(F)cc(F)c1)NC(=O)[C@@H](NC(=O)[C@H](CCC(N)=O)NC(=O)[C@H](Cc1c[nH]c2ccccc12)NC(=O)[C@@H](NC(=O)[C@H](CCC(N)=O)NC(=O)[C@@H](NC(C)=O)C(C)(C)S)[C@@H](C)O)C(C)(C)S)C(=O)N[C@@H](CC(N)=O)C(=O)NCC(N)=O
> 1000 nM	CC(C)[C@H](NC(=O)[C@H](Cc1c[nH]c2ccccc12)NC(=O)[C@H](CC(=O)O)NC(=O)[C@H](C)NC(=O)[C@@H](N)CS)C(=O)N[C@@H](CS)C(=O)N[C@@H](Cc1ccc(O)cc1)C(=O)N[C@@H](C)C(=O)N[C@@H](Cc1cnc[nH]1)C(=O)N[C@H](C(=O)N[C@@H](Cc1ccccc1)C(=O)NCC(N)=O)[C@@H](C)O

The remaining lines, values behind:

SMILES	IC50
CC(=O)N[C@@H](CS)C(=O)N[C@@H](CCC(N)=O)C(=O)N[C@H](C(=O)N[C@@H](CC(N)=O)C(=O)N[C@@H](CCC(N)=O)C(=O)N[C@@H](CS)C(=O)N[C@@H](Cc1ccc(O)cc1)C(=O)N[C@@H](Cc1c[nH]c2ccccc12)C(=O)N[C@@H](CCC(C)C)C(=O)N[C@@H](CCC(=O)O)C(=O)N[C@@H](CC(N)=O)C(=O)NCC(N)=O)[C@@H](C)O (Ac-CQTNQCYW[hLeu]ENG-NH2)	> 10000 nM
CC(=O)N[C@@H](CS)C(=O)N[C@@H](C)C(=O)N[C@@H](CC(=O)O)C(=O)N[C@@H](Cc1c[nH]c2ccccc12)C(=O)N[C@H](C(=O)N[C@@H](CS)C(=O)N[C@@H](Cc1ccc(O)cc1)C(=O)N[C@@H](Cc1c[nH]c2ccccc12)C(=O)N[C@@H](Cc1cnc[nH]1)C(=O)N[C@@H](CCCNC(=N)N)C(=O)N[C@@H](CO)C(=O)N[C@H](C(=O)NCC(=O)NCC(=O)N[C@@H](CCC(N)=O)C(=O)N[C@@H](Cc1cnc[nH]1)C(N)=O)[C@@H](C)O)C(C)C (Ac-CADWVCYWHRSTGGQH-NH2)	500 to 1000 nM
CC(=O)N[C@@H](CS)C(=O)N[C@@H](C)C(=O)N[C@@H](CC(=O)O)C(=O)N[C@@H](Cc1c[nH]c2ccccc12)C(=O)N[C@H](C(=O)N[C@@H](CS)C(=O)N[C@@H](Cc1ccc(O)cc1)C(=O)N[C@@H](Cc1ccc(-c2ccccc2)cc1)C(=O)N[C@@H](CCCN)C(=O)N[C@@H](CN)C(=O)N[C@@H](Cc1ccccc1)C(=O)NCC(=O)NCCOCC(=O)N[C@H](CCCCN)C(N)=O)C(C)C	> 30000 nM
CC(=O)N[C@@H](CS)C(=O)N[C@@H](C)C(=O)N[C@@H](CC(=O)O)C(=O)N[C@@H](Cc1c[nH]c2ccccc12)C(=O)N[C@H](C(=O)N[C@@H](CS)C(=O)N[C@@H](Cc1ccc(O)cc1)C(=O)N[C@@H](Cc1c[nH]c2ccccc12)C(=O)N[C@@H](Cc1cnc[nH]1)C(=O)N[C@H](C(=O)N[C@@H](Cc1ccccc1)C(=O)NCC(=O)N[C@@H](CC(=O)O)C(=O)N[C@@H](CCCCNC(=O)COCC(=O)NCCCC[C@H](NC(=O)[C@H](CC(=O)O)NC(=O)CNC(=O)[C@H](Cc1ccccc1)NC(=O)[C@@H](NC(=O)[C@H](Cc1cnc[nH]1)NC(=O)[C@H](Cc1c[nH]c2ccccc12)NC(=O)[C@H](Cc1ccc(O)cc1)NC(=O)[C@H](CS)NC(=O)[C@@H](NC(=O)[C@H](Cc1c[nH]c2ccccc12)NC(=O)[C@H](CC(=O)O)NC(=O)[C@H](C)NC(=O)[C@H](CS)NC(C)=O)C(C)C)[C@@H](C)O)C(=O)O)C(=O)O)[C@@H](C)O)C(C)C	1000 to 10000 nM
CC(=O)NCC(=O)N[C@H](CC(N)=O)C(=O)N[C@H](CCC(=O)O)C(=O)N[C@H](CC(C)C)C(=O)N[C@H](Cc1c[nH]c2ccccc12)C(=O)N[C@H](Cc1ccc(O)cc1)C(=O)N[C@H](CS)C(=O)N[C@H](CCC(N)=O)C(=O)N[C@H](Cc1c[nH]c2ccccc12)C(=O)N[C@@H](C(=O)N[C@H](CCC(N)=O)C(=O)N[C@H](CS)C(N)=O)[C@H](C)O	> 30000 nM
